Data on two compounds can be found in patent publication US20090130064A1, “DIFFERENTIATION OF STEM CELLS AND STABILIZATION OF PHENOTYPICAL PROPERTIES OF PRIMARY CELLS” (priority 2004, published 2009).

One series deals with Cx43. The experiment in a line: Cx43 expression and localization (immunoblotting, immunocytochemistry) in rat hepatocytes. Type of series: cell-based. The following applies: 1 μM TSA. The protocol:
In all conditions, the hepatocytes were cultivated as a monolayer configuration, and samples were taken at days 1, 4 and 7 (D1, D4, D7) of the cultivation time.
Proteins (25 or 50 μg) were resolved on SDS-PAGE (7.5, 10 or 12%) and blotted afterwards onto nitrocellulose membranes. After blocking with non-fatty milk, membranes were incubated with appropriate concentrations of primary and secondary antibodies (HRP labeled). Proteins were detected using the ECL detection system (Amersham Biosciences). Primary antibodies: Cx26 (Zymed, 1/250), Cx32 (Sigma, 1/500), Cx43 (Zymed, 1/100).
Hepatocytes were fixed with cold ethanol, peremeabilised with Triton X-100 (Sigma) and blocked with non-fatty milk. Following incubation with appropriate concentrations of primary and secondary antibodies (FITC or TRITC labeled), samples were mounted with DAPI-containing Vectashield (Vector Laboratories). Detection was performed by fluorescence microscopy (Leica DMR/XA).
Background: A western blot detects proteins with antibodies after separation by electrophoresis.

In the next series the test system is GSTA. The series is described as follows: GSTA iso-enzyme activity in cultured rat hepatocytes. Type of series: cell-based. As to conditions: TSA treatment. An excerpt: Hepatocytes were isolated from male Sprague-Dawley rats by a two-step collagenase perfusion as described (De Smet et al. In ‘Methods in Molecular Biology, Vol. 107: Cytochrome P450 Protocols’, Philips IR and Shephard E A, eds., p.p 295-301, Humana Press, Totowa, 1998). Hepatocytes were cultivated in monolayer cultures with Willam's E Medium (WE) for 7 days. […] The maintenance of differentiation characteristics was studied after 2, 4, and 7 days (D2, D4, D7) of culture.
In order to investigate Phase II biotransformation, total cytosolic glutathione S-transferase (GST) activity and activities of individual GSTA, GSTP, and GSTM iso-enzymes were measured using standard techniques known in the art. (i.e., measuring conjugation of reduced glutathione with 1-chloro-2,4-dinitrobenzene for total GST; measuring conjugation of reduced glutathione with 7-chloro-4-nitrobenzo-2-oxa-1,3-diazole for GSTA activity; measuring conjugation of reduced glutathione with ethacrynic acid for GSTP activity; and measuring conjugation of reduced glutathione with 1,2-dichloro-4-nitrobenzene for GSTM activity).

For another series, the system named is rat hepatocytes. The series is described as follows: Lactate dehydrogenase index and morphology in cultured rat hepatocytes. Type of series: cell-based. As to conditions: 50 μM. The protocol: The % LDH leakage of the cells was calculated as the result of the ratio: [100×LDH activity in supernatant]/[LDH activity in (supernatant+cells)]
Medium samples were collected at 72 hours of culture and analyzed for their albumin content by an enzyme-linked immunosorbent assay (ELISA) as described (Dunn et al. Biotechnol Prog 7: 237-245, 1991) Cell morphology was analyzed by light microscopy (×100). Pictures were taken using an Optiphot Nikon Phase Contrast microscope (Cetec, Brussels, Belgium).

Series [1] relates to primary rat hepatocytes. The series is described as follows: De novo protein synthesis by [3H]-leucine incorporation. Type of series: cell-based. The following applies: co-treatment with EGF. The protocol: De novo protein synthesis was determined by [^3H]-leucine incorporation. [^3H]-Leucine (2 μCi/ml final concentration) was added to the hepatocyte cultures 68 hours after plating. Four hours later, cells were washed twice with ice-cold PBS and lyzed in 40% cold trichloroacetic acid. After 2 additional washes in 10% cold trichloroacetic acid, the pellet was solubilized in NaOH (0.1N). The amount of [^3H]-leucine was subsequently measured by liquid scintillation.

For the next series, the system named is HDAC. The following applies: cited from earlier work.
The test system of a further series is histone H4. The experiment in a line: Histone H4 acetylation (in vitro HDAC inhibiting activity) in primary rat hepatocytes, Western blot. It counts as cell-based. As to conditions: 48 hours. An excerpt: (§1) Male outbred Sprague-Dawley rats (200-300 g, Iffa Credo, Brussels, Belgium) were kept under controlled environmental conditions (12-hr light-dark cycle) and fed a standard diet (Animafabo A04, water ad libitum). Hepatocytes were isolated by a two-step collagenase perfusion as described (De Smet et al. In ‘Methods in Molecular Biology, Vol. 107: Cytochrome P450 Protocols’, Philips I R and Shephard E A, eds., pp 295-301, Humana Press, Totowa, 1998). Cell liability was >90% as determined by trypan blue exclusion. Cells (0.4×10^5 cells/cm^2) were plated in MEM/M199 (3:1), containing BSA (1 mg/ml), bovine insulin (10 μg/ml), L-glutamine (2 mM), FBS (10% v/v) and antibiotics (7.3 IU/ml benzyl penicillin, 50 μg/ml streptomycin sulphate, 50 μg/ml kanamycin monosulphstep and 10 μg/ml sodium ampicillin). Four hours after plating, serum-containing medium was removed and fresh serum-free medium was added to the cultures. Culture medium was refreshed daily. EGF (50 ng/ml) was added 4 hours after plating. A 100 mM stock solution of 4-Me2N-BAVAH was prepared in ethanol.
Hepatocytes were treated for 48 hours with 4-Me2N-BAVAH (10, 25 or 50 μM) Histones were acid-extracted as described previously (Coussens et al. J Biol Chem 254:1716-1723, 1979). Extracted histones (20 μg per lane) were electrophoresed on a 15% SDS-PAGE as described (Waterborg J et al. Anal Biochem 162: 430-434, 1987) and blotted. Equal sample loading was confirmed with Ponceau S. Membranes were incubated at room temperature with primary antibody for 1 hour under gentle shaking and visualized by ECL. Band intensities were quantified by laser densitometry.

The test system of series [2] is primary rat hepatocytes. The experiment in a line: DNA synthesis ([methyl-3H]-thymidine) in EGF-stimulated primary rat hepatocytes. It counts as cell-based.
Excerpt: as §1
Hepatocytes were cultured in triplicate in 35 mm tissue culture dishes (Beckton Dickinson, UK). Cells were incubated with [methyl-^3H]-thymidine (25 Ci/mmol (2 μCi/ml)) for 24 hours prior to harvesting. Its incorporation was measured by liquid scintillation counting (Wallac 1410; counting efficiency: 67.5%) after trichloroacetic acid precipitation of the DNA. Results are expressed as counts per minute (cpm) per μg of total cellular proteins. Protein concentration of the samples was determined according to the Bradford procedure (Bradford. Anal Biochem 72: 248-254, 1976), using BSA as a standard.

Regarding `CC(C=CC(=O)NO)=CC(C)C(=O)c1ccc(N(C)C)cc1` (stereo not shown) [TSA], in the series on Cx43, the “expression of Cx43” value is “induces the expressions” and the “localization of Cx43” value is recorded as “cytosolic localization”. In the series on GSTA, the “activity of GSTA iso-enzyme” value is recorded as “substantially unaffected”.
Regarding `CN(C)c1ccc(C(=O)NCCCCC(=O)NO)cc1` [4-Me2N-BAVAH, 5-(4-dimethylaminobenzoyl)-aminovaleric acid hydroxamide], the “cytotoxicity (LDH leakage, morphology)” value in the series on rat hepatocytes was “not due to cytotoxicity”. Further, the “de novo protein synthesis” value in the series on primary rat hepatocytes [1] is reported as “not further enhanced”. In the series with HDAC, the “HDAC inhibition, concentration range” value is “micromolar range”. For the same compound, the “histone H4 acetylation, fold induction” value with histone H4 (10 μM) was determined as 2.35±0.05 fold induction; with histone H4 (25 μM) it was 3.56±0.23 fold induction. For the same compound, the “histone H4 hyperacetylation, fold induction” value in the series on histone H4 (50 μM) was found to be 6.91±0.63 fold induction. In the series on primary rat hepatocytes [2] (50 μM added at 24 hours or 48 hours), the “inhibitory effect on DNA replication” value is given as “less or no inhibitory effect”. In addition, the “EGF-induced DNA synthesis” value in the series with primary rat hepatocytes [2] (50 μM from time of plating) is reported as “totally suppressed”. Moreover, the DNA synthesis entry in the series on primary rat hepatocytes [2] (50 μM maintained until 48 hours) is “no DNA synthesis occurred”. For the same compound, in the series with primary rat hepatocytes [2] (50 μM, withdrawal at 24 hours of culture, measured at 72 hours), the “reduction in 3H-thymidine incorporation compared to untreated control cultures” value was 50.9±1.6%.
